Values after ≈ are worked out from the molar mass of the structure shown.
What was measured:
PERK = target: T1, PERK (Homo sapiens, UniProt Q9NZJ5); test: radiometric HotSpot kinase assay; assay type: biochemical; details: 10 μM compound, 10 μM ATP; read-out: % Enzyme inhibition at 10 μM, PERK
T1 construct: purchased Reaction Biology Corporation (Malvern, PA)
T1 sequence (Q9NZJ5 30-1116): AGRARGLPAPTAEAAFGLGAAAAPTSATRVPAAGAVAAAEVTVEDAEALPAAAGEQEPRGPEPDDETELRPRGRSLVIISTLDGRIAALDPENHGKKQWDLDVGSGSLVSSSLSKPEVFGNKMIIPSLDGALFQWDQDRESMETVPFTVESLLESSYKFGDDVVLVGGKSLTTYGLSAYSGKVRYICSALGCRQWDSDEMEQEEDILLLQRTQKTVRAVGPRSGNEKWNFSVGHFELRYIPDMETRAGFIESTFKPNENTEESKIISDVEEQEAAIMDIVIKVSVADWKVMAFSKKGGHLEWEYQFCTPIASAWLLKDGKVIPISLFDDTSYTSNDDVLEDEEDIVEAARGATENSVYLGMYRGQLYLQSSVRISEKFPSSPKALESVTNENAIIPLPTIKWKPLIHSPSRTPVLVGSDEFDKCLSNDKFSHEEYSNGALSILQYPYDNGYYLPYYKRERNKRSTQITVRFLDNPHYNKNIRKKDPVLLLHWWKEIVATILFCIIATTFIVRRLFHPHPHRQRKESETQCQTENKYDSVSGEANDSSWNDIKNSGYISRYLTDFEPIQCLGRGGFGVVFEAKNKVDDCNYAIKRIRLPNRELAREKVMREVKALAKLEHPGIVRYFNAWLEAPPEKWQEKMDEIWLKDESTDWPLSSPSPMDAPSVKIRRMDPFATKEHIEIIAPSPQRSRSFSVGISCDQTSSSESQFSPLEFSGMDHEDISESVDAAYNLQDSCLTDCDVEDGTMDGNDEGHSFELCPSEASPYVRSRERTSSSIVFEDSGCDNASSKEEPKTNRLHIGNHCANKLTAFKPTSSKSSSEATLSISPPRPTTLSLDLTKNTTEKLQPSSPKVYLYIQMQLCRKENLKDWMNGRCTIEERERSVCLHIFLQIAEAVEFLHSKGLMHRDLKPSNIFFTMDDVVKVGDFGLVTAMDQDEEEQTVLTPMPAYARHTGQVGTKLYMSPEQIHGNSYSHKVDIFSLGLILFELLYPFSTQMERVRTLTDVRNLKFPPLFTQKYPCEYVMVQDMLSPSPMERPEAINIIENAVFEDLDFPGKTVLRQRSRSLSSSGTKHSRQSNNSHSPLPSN
Experimental: In vitro compound profiling for recombinant GCN2, PERK, HRI, PKR, or IRE1 kinases were performed at Reaction Biology Corporation (Malvern, PA) using the HotSpot kinase assay. Briefly, all compounds provided for testing were dissolved in 10 mM DMSO stock solutions. […] Specific kinase/substrate mixtures and required cofactors were prepared in reaction buffer (20 mM Hepes (pH 7.5), 10 mM MgCl2, 1 mM EGTA, 0.02% Brij35, 0.02 mg/ml BSA, 0.1 mM Na3VO4, 2 mM DTT, 1% DMSO). Compounds were added to the kinase reaction mixture by Acoustic technology (Echo550; nanoliter range) and incubated for 20 min at room temperature. […] The reaction was incubated or 2 h at room temperature and kinase activity was detected by filter-binding method. IC50 values and curves were generated with GraphPad Prism 7 (GraphPad software).

Kinetic solubility assay = assay type: physicochemical; details: for solubility (in words): PBS pH 7.4; for solubility at 2 h: aqueous buffer, kinetic from dmso stock, PBS pH 7.4, 25 °C
Experimental: Compound solubility was determined in PBS at pH 7.4 by Pharmaron, Inc. (Beijing, China). Briefly, all compounds and control solutions were prepared in DMSO at concentrations of 10 mM. Diclofenac was used as a positive control. 10 μL or 30 μL of each compound was added into a 96-well plate, followed by adding 990 μL or 970 μL, respectively, of PBS at pH 7.4. A stir stick was added to each well and wells were sealed using a molded PTDE/SIL 96-Well Plate Cover. […] After incubation the samples were transferred into the filter plate and filtered by Vacuum Manifold. The filtered samples were diluted with methanol to obtain 3 μM standards (STD). The samples were analyzed by LC-MS/MS against a standard of known concentration in DMSO. The solubility values of duplicate test compounds were calculated in Microsoft Excel using the following equation, where DF means dilution factor: Sample=AREASample×INJVOLStd×DFSample×STD/AREAStd×INJVOLSample

HL-60(TB) = test: NCI-60 one-dose screen; assay type: cell-based; details: Homo sapiens, HL-60, 48 h, read-out: Percent growth inhibition
HT29 = test: NCI-60 one-dose screen; assay type: cell-based; details: Homo sapiens, HT-29, 48 h, Colon HT29, 10 μM, read-out: Percent growth inhibition
Experimental: (§1) Compounds 1 and 2 were submitted to the National Cancer Institute NCI-60 Tumor Cell Screening Program (NCI number 800,700 and 800,701, respectively) for evaluation against the 60 cell line NCI panel at a single dose of 10 μM. […] Leukemia and breast cancer cell lines comprised the only cancer groups that were uniformly sensitive to both 1 and 2, with the greatest sensitivity seen in the leukemia SR cell line.
(§2) Compounds 1 and 2 were submitted to the NCI for growth inhibition screening against its panel of 60 cancer cell lines. The NCI screening protocol has extensively been described [[53], [54], [55], [56]]. Briefly, cancerous cell lines were grown in RPMI 1640 medium containing 5% fetal bovine serum and 2 mM L-glutamine. Depending on the doubling time of each cell line, 5000–40,000 cells were seeded in 96-well plates for 24 h. Cells were then treated with compounds 1 or 2 at a concentration of 10 μM and incubated for 48 h at 37 °C in a humidified atmosphere containing 5% CO2. The cells were then fixed and stained with sulforhodamine B (SRB) to determine their viability. The data were analyzed using a program called COMPARE to determine the percent growth inhibition of each compound.

MOLT-4 = test: NCI-60 one-dose screen; assay type: cell-based; details: Homo sapiens; Leukemia MOLT-4, 10 μM, 48 h; read-out: Percent growth inhibition
Experimental: as §1, §2

OVCAR-5 = test: NCI-60 one-dose screen; assay type: cell-based; details: Homo sapiens; Ovarian OVCAR-5, 10 μM, 48 h; read-out: Percent growth inhibition
Experimental: as §1, §2

SK-MEL-28 = test: NCI-60 one-dose screen; assay type: cell-based; details: Homo sapiens; Melanoma SK-MEL-28, 10 μM, 48 h; read-out: Percent growth inhibition
Experimental: as §1, §2

SR = test: NCI-60 one-dose screen; assay type: cell-based; details: Homo sapiens, 48 h, Leukemia SR, read-out: Percent growth inhibition
Experimental: as §1, §2

UACC-62 = test: NCI-60 one-dose screen; assay type: cell-based; details: Homo sapiens; Melanoma UACC-62, 10 μM, 48 h; read-out: Percent growth inhibition
Experimental: as §1, §2

SMILES	inhibition at 10 µM (PERK) [%]	solubility (in words) (Kinetic solubility assay)	solubility at 2 h (Kinetic solubility assay) [µM]	inhibition at 10 µM (HL-60(TB)) [%]	inhibition at 10 µM (HT29) [%]	inhibition at 10 µM (MOLT-4) [%]	inhibition at 10 µM (OVCAR-5) [%]	inhibition at 10 µM (SK-MEL-28) [%]	inhibition at 10 µM (SR) [%]	inhibition at 10 µM (UACC-62) [%]
CCOc1ccc(-n2nnc3cnc(Nc4cnn(CC)c4)nc32)cc1 [Compound 2, 3-(4-Ethoxyphenyl)-N-(1-ethyl-1H-pyrazol-4-yl)-3H-[1,2,3]triazolo[4,5-d]pyrimidin-5-amine]	< 10	poor	0.31 (≈ 0.109 µg/mL)	24.6	39.7	23.2	-11.8	-2.62	57.5	1.67
CCn1cc(Nc2ncc3nnn(-c4ccc(C(=O)OC)cc4)c3n2)cn1 [Compound 1, Methyl 4-(5-((1-ethyl-1H-pyrazol-4-yl)amino)-3H-[1,2,3]triazolo[4,5-d]pyrimidin-3-yl)benzoate]	24	poor	0.65 (≈ 0.237 µg/mL)	8.55	47	21.6	-5.43	-4.08	43.4	5.19

— PMC6197744, “Triazolo[4,5-d]pyrimidines as Validated General Control Nonderepressible 2 (GCN2) Protein Kinase Inhibitors Reduce Growth of Leukemia Cells” (Computational and Structural Biotechnology Journal, 2018)
